According to patent publication US7030093B2, “Antibiotic coating for porous bodies and method for its production as well as its use” (HERAEUS Kulzer GmbH & Co. KG, priority 2002, dated 2006):

Assay: Release of the antibiotic from the salts in an aqueous environment (finding in words)
Format: physicochemical
Conditions: method not given

Release of the underlying antibiotic in an aqueous environment, in a delayed fashion:
Amikacin laurate
amikacin myristate
amikacin dodecyl sulfate
